From patent publication US5298494A, “Monosaccharides having anti-proliferation and anti-inflammatory activity, compositions and uses thereof” (Greenwich Pharmaceuticals Incorporated, priority 1993, dated 1994) come the findings set out here.

Molecules are shown by their SMILES. “Also recorded” adds a separate entry of the source. Read-outs that look alike come from different tables or passages of the source.

The subject of this assay is T lymphocytes (normal mouse spleen cells) stimulated with ConA. Kind of assay: Mouse Spleen Cell ConA Blastogenesis Assay. Format: cell-based, mouse (C57Bl/6). The settings on record: for inhibition at 0.01 µg/mL / inhibition at 0.1 µg/mL / inhibition at 1 µg/mL / inhibition at 2.5 µg/mL / inhibition at 10 µg/mL / inhibition at 25 µg/mL / inhibition at 100 µg/mL / inhibition at 300 µg/mL / inhibition at 750 µg/mL / inhibition at 0.001 µg/mL: Mus musculus, T-lymphocyte; for inhibition at 300 µg/mL: compound 300 ug/ml; for inhibition at 750 µg/mL: compound 750 ug/ml. The source says:
It is well known that several plant lectins, when cultured in vitro with lymphocytes, stimulate cellular activation and proliferation. Concanavolin, (ConA) selectively stimulates the blastogenic response of T lymphocytes.
Six to 8 week old male C57Bl/6 mice were purchased from Harlan Sprague Dawley (Indianapolis, Ind.).
Spleens were removed and were homogenized to obtain a single cell suspension. Erythrocytes were lysed by hypotonic shock. Upon determination of the viability and concentration of the lymphoid cells, they were adjusted to 4×10^6 cells/ml in culture medium (RPMI-1640) supplemented with 10% fetal bovine serum; 100 ug/ml streptomycin; 100 U/ml penicillin, 0.2M hepes buffer; 5×10^-5 M 2-mercaptoethanol and 2 mM glutamine). seeded into microtiter plate wells at 2×10^5 cells/0.050 ml/well. To these cultures were added various doses of experimental compounds and ConA at a final concentration of 4 or 1 ug/ml. Control cultures consisted of cells, ConA and culture medium containing the vehicle, DMSO only. […] For the testing of the methyl 1,3-O-isopropylidene-6-O-n-heptyl-α-D-fructofuranoside compound indomethacin and NDGA were used as controls. All cultures were run in triplicate.
Solutions of compounds of the invention in DMSO were prepared and dilutions were made in culture medium. Assay concentrations were either: 1, 2.5, 10, 25, 100, 300 and 750 ug/ml or 0.001, 0.01, 0.1, 1, 2.5, 10, 25 and 100 ug/ml.
Cultures were incubated for 3 days at 37° C. in a humidified atmosphere of 5% of CO2 in air. For the last 18 hours of culture, 1 uCi of ^3 H-thymidine was also incubated in each well. The cells were precipitated by a multi-channel harvester. The amount of ^3 H-thymidine incorporated by the cultures, as a measure of cell proliferation, was measured in a liquid scintillation counter. The amount of radioactive incorporation is proportional to the amount of cellular proliferation in individual wells. The students T test was used to determine the significance of the difference between experimental and control values.

Where [1] appears, read: ConA 1 ug/ml, 0.01 ug/ml, read-out: % Change from Control (Table II).
The mark [2] stands for this setting: ConA 1 ug/ml, compound 0.01 ug/ml, read-out: % change from control, ConA blastogenic response.
Where [3] appears, read: ConA 1 ug/ml, compound 0.1 ug/ml, read-out: % change from control, ConA blastogenic response.
Setting [4] is: ConA 1 ug/ml, compound 1 ug/ml, read-out: % change from control, ConA blastogenic response.
[5] abbreviates: ConA 1 ug/ml, compound 2.5 ug/ml, read-out: % change from control, ConA blastogenic response.
[6] abbreviates: ConA 1 ug/ml, compound 10 ug/ml, read-out: % change from control, ConA blastogenic response.
[7] abbreviates: ConA 1 ug/ml, compound 25 ug/ml, read-out: % change from control, ConA blastogenic response.
The mark [8] stands for this setting: ConA 1 ug/ml, compound 100 ug/ml, read-out: % change from control, ConA blastogenic response.
Setting [9] is: ConA 4 ug/ml, 0.01 ug/ml, read-out: % Change from Control (Table II).
Setting [10] is: ConA 4 ug/ml, compound 0.01 ug/ml, read-out: % change from control, ConA blastogenic response.
Where [11] appears, read: ConA 4 ug/ml, compound 0.1 ug/ml, read-out: % change from control, ConA blastogenic response.
The mark [12] stands for this setting: ConA 4 ug/ml, compound 1 ug/ml, read-out: % change from control, ConA blastogenic response.
Setting [13] is: ConA 4 ug/ml, compound 2.5 ug/ml, read-out: % change from control, ConA blastogenic response.
The mark [14] stands for this setting: ConA 4 ug/ml, compound 10 ug/ml, read-out: % change from control, ConA blastogenic response.
[15] abbreviates: ConA 4 ug/ml, compound 25 ug/ml, read-out: % change from control, ConA blastogenic response.
The mark [16] stands for this setting: ConA 4 ug/ml, compound 100 ug/ml, read-out: % change from control, ConA blastogenic response.
The mark [17] stands for this setting: ConA 1 ug/ml, read-out: % change from control, ConA blastogenic response.
Where [18] appears, read: ConA 4 ug/ml, read-out: % change from control, ConA blastogenic response.

As to `CCCCCCCC(=O)O[C@@H]1[C@@H](CO)O[C@@]2(OC)COC(C)(C)O[C@@H]12` [Ih, methyl 1,3-O-isopropylidene-4-O-octanoyl-α-D-fructofuranoside], the inhibition at 0.01 µg/mL under setting [1] is -12%, the inhibition at 0.01 µg/mL under setting [2] was -32%, the inhibition at 0.01 µg/mL under setting [9] was -18% and the inhibition at 0.01 µg/mL under setting [10] was -29%. Moreover, the inhibition at 0.1 µg/mL under setting [3] was -29% and the inhibition at 0.1 µg/mL under setting [11] is -14%. Further, the inhibition at 1 µg/mL is -61% under setting [4] and -16% under setting [12]. Moreover, the inhibition at 2.5 µg/mL reads like this: under setting [5], -63%; under setting [13], -8%. Further, the inhibition at 10 µg/mL was found to be 4% under setting [6] and 22% under setting [14]. Further, the inhibition at 25 µg/mL is, setting by setting: under setting [7], -39%; under setting [15], 14%. Moreover, the inhibition at 100 µg/mL under setting [8] came to 74% and the inhibition at 100 µg/mL under setting [16] was 90%.
In the case of `CCCCCCCSC[C@H]1OC(C)(C)O[C@@H]2[C@H]3OC(C)(C)O[C@H]3O[C@@H]21` [IIIn, 1,2:3,5-Di-O-Isopropylidene-6-deoxy-6-thio-n-heptyl-β-D-glucofuranose], the inhibition at 1 µg/mL under setting [4] stood at 4% and the inhibition at 1 µg/mL under setting [12] was -1%. Besides, the inhibition at 10 µg/mL is, setting by setting: under setting [6], 29%; under setting [14], 12%. For the same compound, the inhibition at 25 µg/mL came to 27% under setting [7] and 16% under setting [15]. Besides, the inhibition at 100 µg/mL is, setting by setting: under setting [8], 84%; under setting [16], 76%. Further, the inhibition at 300 µg/mL under setting [17] is 99% and the inhibition at 300 µg/mL under setting [18] was determined as 99%. Further, the inhibition at 750 µg/mL under setting [17] was 99% and the inhibition at 750 µg/mL under setting [18] was determined as 98%. Further, for the setting “concentration not given”, the “strong antiproliferative effect on ConA blastogenic response” value is reported as “greater than -50 % of control”.
`CCCCCCCC(=O)OC[C@H]1O[C@@]2(OC)COC(C)(C)O[C@H]2[C@@H]1O` [Ii, methyl 1,3-O-isopropylidene-6-O-octanoyl-α-D-fructofuranoside]: the “effect on ConA T lymphocyte proliferation in words” value is recorded as “less potent inhibitor of the mitogen induced T lymphocyte proliferative response; also recorded: significant inhibition observed at all dose levels on the 1 ug/ml ConA cultures”. For the same compound, the inhibition at 0.01 µg/mL under setting [1] is -11%. The inhibition at 0.01 µg/mL under setting [2] is -7%. Moreover, the inhibition at 0.1 µg/mL under setting [3] was -21%. Also, under setting [4], the inhibition at 1 µg/mL is -52%. Moreover, the inhibition at 2.5 µg/mL under setting [5] was -62%. Also, the inhibition at 10 µg/mL under setting [6] was -13%. The inhibition at 25 µg/mL under setting [7] is -41%. Moreover, the inhibition at 100 µg/mL under setting [8] came to 27%. The inhibition at 0.01 µg/mL under setting [9] was -28%. In addition, under setting [10], the inhibition at 0.01 µg/mL is -37%. In addition, the inhibition at 0.1 µg/mL under setting [11] was -28%. The inhibition at 1 µg/mL under setting [12] is -17%. Also, under setting [13], the inhibition at 2.5 µg/mL is -22%. For the same compound, under setting [14], the inhibition at 10 µg/mL came to 1%. In addition, the inhibition at 25 µg/mL under setting [15] was -7%. Under setting [16], the inhibition at 100 µg/mL stood at 47%.
Take `CCCCCCCC(=O)OC[C@H]1O[C@@]2(OC)COC(C)(C)O[C@H]2[C@@H]1OC(=O)CCCCCCC` [Ij, methyl 1,3-O-isopropylidene-4,6-di-O-octanoyl-α-D-fructofuranoside]: the inhibition at 0.01 µg/mL runs as follows: under setting [1], 60%; under setting [2], 100%; under setting [9], 3%; under setting [10], -42%. Besides, the inhibition at 0.1 µg/mL came out at 100% under setting [3] and 12% under setting [11]. The inhibition at 1 µg/mL under setting [4] amounted to 100% and the inhibition at 1 µg/mL under setting [12] was -9%. In addition, the inhibition at 2.5 µg/mL worked out at 100% under setting [5] and 15% under setting [13]. Moreover, the inhibition at 10 µg/mL was 100% under setting [6] and 43% under setting [14]. Also, the inhibition at 25 µg/mL is, setting by setting: under setting [7], 100%; under setting [15], 79%. Also, the inhibition at 100 µg/mL worked out at 100% under setting [8] and 92% under setting [16].
`CCCCCCCO[C@@H]1[C@@H](CO)O[C@@]2(CO)OC(C)(C)O[C@@H]12` [Ik, 2,3-O-isopropylidene-4-O-heptyl-β-D-fructofuranose]: the “Blastogenic response of normal spleen cells to Con-A” value (“Blastogenic response … to Con-A” below) is on record as 139.5 ± 4.0 × 10^-3 cpm (ConA 1 ug/ml, compound 0.001 ug/ml); 146.4 ± 5.2 × 10^-3 cpm (ConA 1 ug/ml, compound 0.01 ug/ml); 145 ± 6.9 × 10^-3 cpm (ConA 1 ug/ml, compound 0.1 ug/ml); 119.1 ± 3.3 × 10^-3 cpm (ConA 1 ug/ml, compound 1 ug/ml); 98.5 ± 7.0 × 10^-3 cpm (ConA 1 ug/ml, compound 2.5 ug/ml); 1.4 ± 0.2 × 10^-3 cpm (ConA 1 ug/ml, compound 25 ug/ml). Besides, the “Blastogenic response … to Con-A” value reads like this: (ConA 1 ug/ml, compound 100 ug/ml) 0.3 ± 0.1 × 10^-3 cpm; (ConA 4 ug/ml, compound 0.001 ug/ml) 167.1 ± 16.7 × 10^-3 cpm; (ConA 4 ug/ml, compound 0.01 ug/ml) 212.6 ± 16.3 × 10^-3 cpm; (ConA 4 ug/ml, compound 0.1 ug/ml) 183.6 ± 10.4 × 10^-3 cpm; (ConA 4 ug/ml, compound 1 ug/ml) 135.3 ± 10.8 × 10^-3 cpm; (ConA 4 ug/ml, compound 2.5 ug/ml) 90.4 ± 7.8 × 10^-3 cpm. For the same compound, the “Blastogenic response … to Con-A” value is, setting by setting: (ConA 4 ug/ml, compound 10 ug/ml) 18.4 ± 0.2 × 10^-3 cpm; (ConA 4 ug/ml, compound 25 ug/ml) 2.5 ± 0.4 × 10^-3 cpm; (ConA 4 ug/ml, compound 100 ug/ml) 0.4 ± 0.1 × 10^-3 cpm. For the same compound, the inhibition at 0.001 µg/mL is, setting by setting: (ConA 1 ug/ml, compound 0.001 ug/ml, read-out: % change from control, ConA blastogenic response) -11%; (ConA 4 ug/ml, compound 0.001 ug/ml, read-out: % change from control, ConA blastogenic response) 8%. Moreover, the inhibition at 0.01 µg/mL runs as follows: under setting [2], -8%; under setting [10], -14%. Further, the inhibition at 0.1 µg/mL amounted to 3% under setting [3] and 8% under setting [11]. The inhibition at 1 µg/mL is, setting by setting: under setting [4], 19%; under setting [12], 35%. For the same compound, the inhibition at 2.5 µg/mL runs as follows: under setting [5], 21%; under setting [13], 51%. The inhibition at 10 µg/mL reads like this: under setting [6], 79%; under setting [14], 91%. Besides, the inhibition at 25 µg/mL is, setting by setting: under setting [7], 99%; under setting [15], 99%. Moreover, the inhibition at 100 µg/mL was 100% under setting [8] and 100% under setting [16].
